Tested on: C1300 mouse neuroblastoma cells, Neuro-2a clone
Experiment: Neuritogenic activity (cells with neurites, optical microscopy)
Type: cell-based
Method: C1300 mouse neuroblastoma cells, Neuro-2a clone, (American Cell Type Culture Collection, Bethesda, Md.) were grown at a density of 10,000 cells/well in a culture medium containing Dulbecco's modified Eagle medium (DMEM, Flow), 10% fetal calf serum (FCS, batch IP 02, Seromed), penicillin (100 units per ml, Irvine), and L-glutamine (2 mM, Sigma). Cells were incubated at 37° C. for 24 hours, and medium was removed and substituted with 350 μl of fresh medium plus compounds to be tested.
Tested Compounds and Their Solubilization
Compounds ND35 and ND37 were solubilized at a concentration of 1×10^-2 M in dimethylsulfoxide (1% DMSO). For the different compounds, progressive dilutions in culture medium were performed (concentrations from 1×10^-5 to 1×10^-4 M).
Neuritogenic activity (cell number with neurites, optical microscopy)
Culture plates were incubated with compounds to be tested and analyzed using a phase contrast microscope (250×). Nine fields with prefixed coordinates were chosen and photographed. Then the total number of cells and those with neurites (length at least double the cell diameter) were counted in blind in each photograph. The percentage of cells with neurites was determined after counting of at least 100 cells (Facci L. et al.: Promotion of neuritogenesis in mouse neuroblastoma cells by exogenous ganglioside GM1. J. Neurochem. Raven Press, New York, 299-305,1984).

Compound: CCCCCCCCCCCCCCCC(=O)NC1C(O)CC(OCC)(C(=O)NCCCN(C)C)OC1C(O)C(O)CO (centres unmarked) [ND35, 2-ethylglycoside of N-palmitoyl-neuraminic acid dimethylaminopropylamide]
- Cells with neurities (%) (1 × 10^-4 M): 39 ± 7%
- Cells with neurities (%) (1 × 10^-5 M): 7 ± 2%
- neuritogenesis in vitro (1×10^-5 to 1×10^-4 M): induce neuritogenesis
- Cells with neurities (%) (2.5 × 10^-5 M): 7 ± 3%
- Cells with neurities (%) (5 × 10^-5 M): 28 ± 7%

Reference: patent US5677285A, “Derivatives of neuraminic acid” (Fidia S.P.A., priority 1992, dated 1997)
